The structures appear in SMILES notation.

This passage reports IC50 results from the Kinase Knowledgebase extract (Sharma et al. 2016).

The assay addresses EGFR (UniProt P00533).

Sequence of EGFR (P00533 whole entry, looked up): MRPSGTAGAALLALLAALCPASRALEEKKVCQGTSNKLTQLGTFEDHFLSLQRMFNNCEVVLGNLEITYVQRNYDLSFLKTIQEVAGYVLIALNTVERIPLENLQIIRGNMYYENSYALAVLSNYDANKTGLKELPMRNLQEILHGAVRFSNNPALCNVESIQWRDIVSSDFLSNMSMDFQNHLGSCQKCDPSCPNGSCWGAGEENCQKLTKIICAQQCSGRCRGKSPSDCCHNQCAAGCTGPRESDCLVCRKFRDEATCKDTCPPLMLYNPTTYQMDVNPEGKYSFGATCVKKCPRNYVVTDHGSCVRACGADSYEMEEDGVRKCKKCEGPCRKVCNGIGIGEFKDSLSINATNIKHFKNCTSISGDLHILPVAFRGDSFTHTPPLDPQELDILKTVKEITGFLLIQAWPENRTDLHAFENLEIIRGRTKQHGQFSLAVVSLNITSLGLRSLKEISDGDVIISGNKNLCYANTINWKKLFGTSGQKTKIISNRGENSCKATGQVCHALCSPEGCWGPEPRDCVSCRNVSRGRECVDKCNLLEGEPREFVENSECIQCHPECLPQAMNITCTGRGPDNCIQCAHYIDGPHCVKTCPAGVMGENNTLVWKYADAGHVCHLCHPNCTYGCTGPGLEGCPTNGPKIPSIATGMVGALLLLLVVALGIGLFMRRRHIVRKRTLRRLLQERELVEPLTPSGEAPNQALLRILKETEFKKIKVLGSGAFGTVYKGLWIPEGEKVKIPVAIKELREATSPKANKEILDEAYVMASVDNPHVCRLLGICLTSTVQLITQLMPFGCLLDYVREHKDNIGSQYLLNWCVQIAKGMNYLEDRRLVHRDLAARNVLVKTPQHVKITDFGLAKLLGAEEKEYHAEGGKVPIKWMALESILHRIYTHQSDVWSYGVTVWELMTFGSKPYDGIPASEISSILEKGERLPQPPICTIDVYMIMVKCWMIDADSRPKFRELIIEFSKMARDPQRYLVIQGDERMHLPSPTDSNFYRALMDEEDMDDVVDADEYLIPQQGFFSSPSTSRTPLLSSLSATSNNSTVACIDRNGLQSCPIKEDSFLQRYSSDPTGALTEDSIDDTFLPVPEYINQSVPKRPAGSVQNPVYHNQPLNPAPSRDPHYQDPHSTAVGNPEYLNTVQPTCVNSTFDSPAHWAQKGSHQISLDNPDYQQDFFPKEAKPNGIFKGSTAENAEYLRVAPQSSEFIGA

One may read the IC50 as the concentration that inhibits the measured activity by half. Consider `COC(=O)c1cn2ncnc(Nc3ccc(Br)cc3F)c2c1C`, for which the IC50 was in the range of 0.003 to 25 µM. Then `COC(=O)c1cn2ncnc(C3C(=O)Nc4cc(S(C)(=O)=O)ccc43)c2c1C` (centres undefined), with 0.003 to 25 µM; and `CCOC(=O)c1cn2ncnc(NCC3CCCCC3)c2c1CC`, with 0.003 to 25 µM; and `COC(=O)c1cn2ncnc(Nc3cccc(CO)c3)c2c1C`, with 0.003 to 25 µM.

`COC(=O)c1cn2ncnc(Nc3cc(CO)ccc3C)c2c1C`: the IC50 lay in the range of 0.003 to 25 µM.

For the molecule `Cc1ccc2c(Nc3ccc(Br)cc3F)ncnn12`, the IC50 was 0.003 to 25 µM.

Turning to `CCOC(=O)c1cn2ncnc(Nc3ccc(C)c(O)c3)c2c1CC`, the IC50 was 0.003 to 25 µM.

Molecule `CCC(C)NC(=O)c1cn2ncnc(C3C(=O)Nc4ccccc43)c2c1C` (centres undefined) came in with an IC50 of 0.003 to 25 µM. Then `Clc1ccc(Nc2ncnn3c(Br)ccc23)cc1`, with 0.003 to 25 µM. Then `COC(=O)c1cn2ncnc(Nc3cc[nH]n3)c2c1C`, with 0.003 to 25 µM; and `COC(=O)c1cn2ncnc(Nc3ccc(C)c(O)c3)c2c1C`, with 0.003 to 25 µM. As for `CCOC(=O)c1cn2ncnc(C3C(=O)Nc4ccccc43)c2c1C(=O)OCC` (centres undefined), the figure is 0.003 to 25 µM; as for `CCc1c(C(=O)OC)cn2ncnc(Nc3ccc(OC)nc3)c12`, 0.003 to 25 µM; as for `COC(=O)c1cn2ncnc(Nc3ccc4c(c3)C(=O)NC4=O)c2c1C`, 0.003 to 25 µM. As for `CCOC(=O)c1cn2ncnc(Nc3ccc(OC)nc3)c2c1CC`, the IC50 lay in the range of 0.003 to 25 µM.

For `Cc1c(NS(C)(=O)=O)cn2ncnc(C3C(=O)Nc4ccccc43)c12` (centres undefined), the IC50 lay within 0.003 to 25 µM.

As for `COC(=O)c1cn2ncnc(Nc3ccc(C(=O)O)c(O)c3)c2c1C`, the IC50 lay in the range of 0.003 to 25 µM.

Turning to `COC(=O)c1cn2ncnc(C3C(=O)Nc4cc(C(F)(F)F)ccc43)c2c1C` (centres undefined), the half-maximal inhibitory concentration (IC50) lay within 0.003 to 25 µM. `Cc1c(C(=O)NCCCn2nccn2)cn2ncnc(C3C(=O)Nc4ccccc43)c12` (centres undefined) gave an IC50 of 0.003 to 25 µM. Then `COc1c(OCc2ccccc2)cn2ncnc(C3C(=O)Nc4ccccc43)c12` (centres undefined), with 0.003 to 25 µM; and `COC(=O)c1cn2ncnc(-n3[nH]c(=O)c4ccccc43)c2c1C`, with 0.003 to 25 µM; and `COC(=O)c1cn2ncnc(Nc3ccc(C#N)c(O)c3)c2c1C`, with 0.003 to 25 µM. Then `COC(=O)c1cn2ncnc(-n3[nH]c(C)cc3=O)c2c1C`, with 0.003 to 25 µM; and `COC(=O)c1cn2ncnc(Nc3cc(C)cc(O)c3)c2c1C`, with 0.003 to 25 µM; and `Cc1c(C(=O)NCCCN2CCOCC2)cn2ncnc(Nc3ccc(Br)cc3)c12`, with 0.003 to 25 µM. Then `CCNC(=O)c1cn2ncnc(Nc3ccc4c(cnn4Cc4ccccc4)c3)c2c1CC`, with 0.003 to 25 µM. Molecule `CCOC(=O)c1cn2ncnc(Nc3ccc(Cl)nc3)c2c1CC` returned an IC50 of 0.003 to 25 µM. On to `COC(=O)c1cn2ncnc(C3C(=O)N(C)c4ccccc43)c2c1C` (centres undefined), for which the IC50 was in the range of 0.003 to 25 µM. In the case of `Clc1ccc(Nc2ncnn3cccc23)cc1`, the IC50 lay in the range of 0.003 to 25 µM. With `Cc1c(OCCCn2nccn2)cn2ncnc(Nc3ccc(Br)cc3F)c12`, the IC50 was in the range of 0.003 to 25 µM. Then `COC(=O)c1cn2ncnc(C3C(=O)Nc4ccc(S(N)(=O)=O)cc43)c2c1C` (centres undefined), with 0.003 to 25 µM. `COc1c(C(=O)NCCCn2cncn2)cn2ncnc(C3C(=O)Nc4ccccc43)c12` (centres undefined) had an IC50 of 0.003 to 25 µM. Then `Cc1nc(C2C(=O)Nc3ccccc32)c2c(C)c(C(N)=O)cn2n1` (centres undefined), with 0.003 to 25 µM; and `COC(=O)c1cn2ncnc(Nc3ccc(Br)c(O)c3)c2c1C`, with 0.003 to 25 µM; and `COC(=O)c1c(OC)c(OC)c2c(C3C(=O)Nc4ccccc43)ncnn12` (centres undefined), with 0.003 to 25 µM. Then `CCc1ccc(Nc2ncnn3cc(C(=O)OC)c(C)c23)cc1O`, with 0.003 to 25 µM; and `Cc1c(C(=O)NCCCCN2CCOCC2)cn2ncnc(C3C(=O)Nc4ccccc43)c12` (centres undefined), with 0.003 to 25 µM; and `CCOC(=O)c1cn2ncnc(NCc3cccc(Br)c3)c2c1CC`, with 0.003 to 25 µM. Then `CCOC(=O)c1cn2ncnc(N3CCCC4C=CC=CC43)c2c1CC` (centres undefined), with 0.003 to 25 µM; and `CCc1ccc(Nc2ncnn3cc(C(=O)NCCCN4CCOCC4)c(C)c23)cc1O`, with 0.003 to 25 µM. As to `CCc1c(C(=O)NCCN2CCOCC2)c(Br)n2ncnc(Nc3ccc4c(cnn4Cc4ccccc4)c3)c12`, the IC50 fell in the range of 0.003 to 25 µM. As to `Cc1ccc(Nc2ncnn3cc(C(=O)NCCCCN(C)C)c(C)c23)cc1O`, the IC50 fell in the range of 0.003 to 25 µM. As for `CCCCNc1ncnn2cc(C(=O)OCC)c(CC)c12`, the figure is 0.003 to 25 µM; as for `CCOC(=O)c1cn2ncnc(Nc3cccc4c3cnn4Cc3ccccc3)c2c1CC`, 0.003 to 25 µM. As to `CCCc1c(C(=O)OCC)cn2ncnc(Nc3ccc(C)c(O)c3)c12`, the IC50 lay within 0.003 to 25 µM. As for `CCc1c(C(=O)NCCN2CCCC2)cn2nc(C)nc(Nc3ccc(OC)nc3)c12`, the figure is 0.003 to 25 µM; as for `Cc1ccc(Nc2ncnn3cc(N)c(C)c23)cc1O`, 0.003 to 25 µM; as for `Cc1c(C(=O)NCCCN2CCOCC2)cn2ncnc(C3C(=O)Nc4ccccc43)c12` (centres undefined), 0.003 to 25 µM. Then `CCc1c(C)c2c(Nc3ccc(C)c(O)c3)ncnn2c1C`, with 0.003 to 25 µM.
